In brackets after ≈: the same amount, converted by molar mass. Several values for one entry are separate records, joined by “and”; a condition that tells them apart may be missing. Equal entries are not always repeated. Where two headings read alike, the source gives them in different places.
Columns and labels:
VERO cells (ATCC CRL-81) = test: Vero cell toxicity; type: cell-based; details: 72 hours exposure
Description: Cytotoxicity for a mammalian cell line was determined by exposing VERO cells (ATCC CRL-81) to serial dilutions of test compounds for 72 hours, followed by addition of resazurin and measurement of fluorescence after 4 hours incubation (Choules, et al., Antimnicrob. Agents Chemother. 2019, 63, e02204-02218).

[1] = type: in vivo, BALB/c mice; details: Day 1, Five Day Study, 4 hr
MTB H37Rv ATCC 27294 = test: MIC, microplate Alamar Blue assay (MABA); type: cell-based, Mycobacterium tuberculosis
M. tuberculosis H37Rv = test: Minimum bactericidal concentration (MBC, CFU Assay); type: cell-based, Mycobacterium tuberculosis
M. tuberculosis Erdman = test: Mouse acute efficacy study (lung CFU); type: in vivo, BALB/c mice; details: for CFU/Mouse: day 21
[2] = Mouse acute efficacy study: mice weight and adverse effects
E. coli WT RNAP = target: T1, E. coli WT RNAP (Escherichia coli, UniProt P0A8V2); test: biochemical
T1 construct: made in house

[3] = type: in vivo, BALB/c mice
Description: For i.v. dosing, the vehicle DMSO/PEG-400/PBS (1×) (5/60/35) was used. Female ˜20 g BALB/c mice (7-9 weeks old) were used in the study. Three mice were used for each set of conditions. […] Plasma concentrations were determined over 24 hrs in the single day study and on days 1 and 5 in the 5 day study. Lung exposure was also determined in the 1 day study at 24 hrs post dosing and on day 5 of the 5 day study at 4 hrs and 24 hrs post dosing. Compound concentrations were determined by reverse phase HPLC-MS against a standard curve.

[4] = target: T2, human pregnane X receptor (hPXR) (Homo sapiens, UniProt O75469)
T2 sequence (O75469 1-434): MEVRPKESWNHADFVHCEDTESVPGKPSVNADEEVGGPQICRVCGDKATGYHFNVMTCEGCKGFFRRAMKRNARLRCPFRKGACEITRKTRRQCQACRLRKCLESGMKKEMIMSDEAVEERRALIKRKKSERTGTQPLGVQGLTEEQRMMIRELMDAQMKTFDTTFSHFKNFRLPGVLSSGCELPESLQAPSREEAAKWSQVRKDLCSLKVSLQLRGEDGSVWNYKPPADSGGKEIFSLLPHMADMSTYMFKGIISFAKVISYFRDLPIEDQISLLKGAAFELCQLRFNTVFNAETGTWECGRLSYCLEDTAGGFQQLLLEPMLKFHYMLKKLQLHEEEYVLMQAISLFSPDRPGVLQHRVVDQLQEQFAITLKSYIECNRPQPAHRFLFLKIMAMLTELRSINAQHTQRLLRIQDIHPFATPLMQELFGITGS

WT MTB RNAP = target: T3, WT MTB RNAP (Mycobacterium tuberculosis, UniProt P9WGY9); type: biochemical; details: lower limit of detection ~5 nM
T3 construct: made in house; host or cells: E. coli BL21(DE3)

CYP 3A4 = details: human, 24 h
[5] = human trials; cited from earlier work
hPXR = hPXR (Homo sapiens, UniProt O75469); details: cited from earlier work
MTB H37Rv = details: cited from earlier work
[6] = mouse, in vivo
[7] = 100 mg/kg QD, PEG-water vehicle
[8] = Mycobacterium tuberculosis, MTB H37Rv ATCC 27294, microplate Alamar Blue assay, lowest concentration giving ≥90% reduction in fluorescence

T3 sequence (P9WGI1 whole entry): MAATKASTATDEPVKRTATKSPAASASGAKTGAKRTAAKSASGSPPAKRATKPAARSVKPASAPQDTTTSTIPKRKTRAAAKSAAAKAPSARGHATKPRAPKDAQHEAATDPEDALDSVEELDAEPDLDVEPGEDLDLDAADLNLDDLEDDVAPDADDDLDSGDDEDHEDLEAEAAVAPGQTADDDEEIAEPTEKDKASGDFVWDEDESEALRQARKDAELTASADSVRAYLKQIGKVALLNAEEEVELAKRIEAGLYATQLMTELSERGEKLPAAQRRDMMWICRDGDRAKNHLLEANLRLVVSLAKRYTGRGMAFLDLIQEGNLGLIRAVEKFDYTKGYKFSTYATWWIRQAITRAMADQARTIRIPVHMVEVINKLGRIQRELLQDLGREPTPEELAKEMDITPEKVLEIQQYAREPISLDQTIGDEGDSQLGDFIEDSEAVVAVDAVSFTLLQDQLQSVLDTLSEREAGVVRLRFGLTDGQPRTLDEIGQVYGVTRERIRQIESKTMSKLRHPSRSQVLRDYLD
T3 sequence (P9WGY7 whole entry, further chain): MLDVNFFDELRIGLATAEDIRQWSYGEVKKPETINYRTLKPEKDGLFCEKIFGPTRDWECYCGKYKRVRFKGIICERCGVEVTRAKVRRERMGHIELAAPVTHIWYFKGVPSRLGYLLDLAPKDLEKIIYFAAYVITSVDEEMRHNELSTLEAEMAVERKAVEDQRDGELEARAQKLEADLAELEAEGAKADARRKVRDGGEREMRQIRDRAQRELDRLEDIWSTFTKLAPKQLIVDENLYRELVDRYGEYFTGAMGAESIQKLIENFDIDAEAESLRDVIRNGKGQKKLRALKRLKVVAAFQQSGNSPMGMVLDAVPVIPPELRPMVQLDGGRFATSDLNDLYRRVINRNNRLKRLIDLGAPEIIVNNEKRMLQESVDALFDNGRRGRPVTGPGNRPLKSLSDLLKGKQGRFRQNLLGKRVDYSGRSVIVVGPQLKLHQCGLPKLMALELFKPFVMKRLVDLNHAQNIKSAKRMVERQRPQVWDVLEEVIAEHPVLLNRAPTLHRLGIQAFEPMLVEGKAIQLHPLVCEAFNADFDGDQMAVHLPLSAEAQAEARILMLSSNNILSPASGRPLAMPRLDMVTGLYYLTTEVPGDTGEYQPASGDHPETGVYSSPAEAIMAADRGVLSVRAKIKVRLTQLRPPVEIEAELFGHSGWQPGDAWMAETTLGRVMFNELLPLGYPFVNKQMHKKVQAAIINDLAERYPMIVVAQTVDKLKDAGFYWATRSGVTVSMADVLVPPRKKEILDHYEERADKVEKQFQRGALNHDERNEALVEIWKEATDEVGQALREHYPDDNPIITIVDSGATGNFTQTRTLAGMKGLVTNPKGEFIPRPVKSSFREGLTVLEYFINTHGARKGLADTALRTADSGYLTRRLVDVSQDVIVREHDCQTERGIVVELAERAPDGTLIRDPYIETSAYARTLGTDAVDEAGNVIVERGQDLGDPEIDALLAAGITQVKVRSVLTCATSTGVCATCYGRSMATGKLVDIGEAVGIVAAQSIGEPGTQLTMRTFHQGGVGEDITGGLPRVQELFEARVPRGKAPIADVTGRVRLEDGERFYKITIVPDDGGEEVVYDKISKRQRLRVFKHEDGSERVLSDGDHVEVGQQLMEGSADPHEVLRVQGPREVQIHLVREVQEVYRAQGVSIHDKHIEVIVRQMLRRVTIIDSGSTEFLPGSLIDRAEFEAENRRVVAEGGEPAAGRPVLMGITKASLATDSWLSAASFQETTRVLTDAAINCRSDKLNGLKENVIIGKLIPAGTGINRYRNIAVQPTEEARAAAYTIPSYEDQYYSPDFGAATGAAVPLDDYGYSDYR
T3 sequence (P9WGY5 whole entry, further chain): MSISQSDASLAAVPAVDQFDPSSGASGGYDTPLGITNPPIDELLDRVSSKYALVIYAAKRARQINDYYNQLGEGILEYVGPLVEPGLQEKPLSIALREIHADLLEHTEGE
T3 sequence (P9WGZ1 whole entry, further chain): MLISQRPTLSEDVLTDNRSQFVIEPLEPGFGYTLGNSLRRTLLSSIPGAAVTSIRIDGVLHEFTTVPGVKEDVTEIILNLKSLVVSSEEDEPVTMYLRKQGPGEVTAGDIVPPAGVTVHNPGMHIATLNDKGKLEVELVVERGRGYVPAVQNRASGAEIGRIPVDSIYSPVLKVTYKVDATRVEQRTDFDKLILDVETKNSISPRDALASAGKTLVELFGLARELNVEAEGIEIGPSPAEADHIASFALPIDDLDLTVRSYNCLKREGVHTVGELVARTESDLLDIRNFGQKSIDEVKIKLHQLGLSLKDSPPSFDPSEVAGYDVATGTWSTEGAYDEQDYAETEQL
T3 sequence (P9WGY9 whole entry): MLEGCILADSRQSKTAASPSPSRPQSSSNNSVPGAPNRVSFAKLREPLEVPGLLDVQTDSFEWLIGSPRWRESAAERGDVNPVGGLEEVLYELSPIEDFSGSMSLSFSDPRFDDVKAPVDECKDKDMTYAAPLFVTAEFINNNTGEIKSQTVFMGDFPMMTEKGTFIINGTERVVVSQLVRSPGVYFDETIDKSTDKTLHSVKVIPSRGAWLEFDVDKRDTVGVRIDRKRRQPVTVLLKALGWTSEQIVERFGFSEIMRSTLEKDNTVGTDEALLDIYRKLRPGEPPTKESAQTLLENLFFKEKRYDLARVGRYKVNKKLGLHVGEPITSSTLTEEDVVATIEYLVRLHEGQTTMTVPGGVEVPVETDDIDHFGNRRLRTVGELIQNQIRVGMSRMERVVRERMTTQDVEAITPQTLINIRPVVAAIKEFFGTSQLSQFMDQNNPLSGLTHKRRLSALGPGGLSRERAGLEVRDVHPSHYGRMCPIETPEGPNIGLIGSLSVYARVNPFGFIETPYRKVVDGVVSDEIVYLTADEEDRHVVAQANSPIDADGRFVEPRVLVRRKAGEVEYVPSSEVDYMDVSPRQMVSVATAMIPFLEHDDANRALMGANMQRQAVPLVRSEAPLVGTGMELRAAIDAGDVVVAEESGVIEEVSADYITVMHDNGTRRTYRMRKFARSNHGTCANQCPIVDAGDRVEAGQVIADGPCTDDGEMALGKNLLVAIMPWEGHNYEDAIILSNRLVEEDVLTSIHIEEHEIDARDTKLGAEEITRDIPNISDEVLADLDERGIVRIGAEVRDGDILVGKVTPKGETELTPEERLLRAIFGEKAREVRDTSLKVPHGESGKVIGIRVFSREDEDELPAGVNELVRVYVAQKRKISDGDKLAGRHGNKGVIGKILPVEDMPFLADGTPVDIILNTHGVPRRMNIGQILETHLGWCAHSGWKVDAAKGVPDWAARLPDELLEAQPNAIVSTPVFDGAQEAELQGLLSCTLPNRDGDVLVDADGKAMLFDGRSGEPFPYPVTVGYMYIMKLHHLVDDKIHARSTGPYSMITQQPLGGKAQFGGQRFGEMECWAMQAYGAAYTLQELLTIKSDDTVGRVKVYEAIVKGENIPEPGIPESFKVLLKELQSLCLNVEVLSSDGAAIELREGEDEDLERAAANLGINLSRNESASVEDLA

## CO[C@H]1/C=C/O[C@@]2(C)Oc3c(C)c(O)c4c(=O)c(c5oc6cc(N7CCN(CC(C)C)CC7)cc(OCc7ccc(CN8CCOCC8)cc7)c6nc-5c4c3C2=O)NC(=O)/C(C)=C\C=C\[C@H](C)[C@H](O)[C@@H](C)[C@@H](O)[C@@H](C)[C@H](OC(C)=O)[C@@H]1C [Compound 17e, (7S,9E,11S,12R,13S,14R,15R,16R,17S,18S,19E,21Z)-2,15,17-Trihydroxy-11-methoxy-3,7,12,14,16,18,22-heptamethyl-30-[4-(2-methylpropyl)piperazin-1-yl]-32-({4-[(morpholin-4-yl)methyl]phenyl}methoxy)-6,23,37-trioxo-8,27,38-trioxa-24,34-diazahexacyclo[23.11.1.1^4,7.0^5,36.0^26,35.0^28,33]octatriaconta-1(36)2,4,9,19,21,25,28,30,32,34-undecaen-13-yl acetate]
VERO cells (ATCC CRL-81); Chlorocebus sabaeus, Vero
  IC50: > 10 µM
[1]
  Lung Homogenate concentration, Avg: 248 ng/mL and 219 nM
MTB H37Rv ATCC 27294
  MIC90 MABA Rel to RMP: 0.12
MTB H37Rv ATCC 27294; Mycobacterium tuberculosis, MTB H37Rv ATCC 27294, microplate Alamar Blue assay, lowest concentration giving ≥90% reduction in fluorescence, read-out: MIC90 MABA
  MIC: 5 nM
M. tuberculosis H37Rv
  MBC better than that of rifampin: ~5 fold
M. tuberculosis Erdman; 100 mg/kg PO
  effectiveness versus rifampin control at 15 mg/kg in the same vehicle: at least equal in effectiveness
M. tuberculosis Erdman; [7]
  CFU/Mouse: 4,029
[2]; [7]
  Mice Weight (g) Day 0: 20.4 g
  Mice Weight (g) Day 31: 21.0 g
[2]; 3-week treatment period
  adverse effects noted in the mice: no adverse effects
E. coli WT RNAP
  IC50: 14 nM
[3]; Day 1, Five Day Study, 4 hr
  Plasma concentration, Avg: 360 ng/mL and 319 nM
[3]; Day 1, One Day Study, 24 hr
  Lung Homogenate concentration, Avg: 164 ng/mL and 145 nM
  Plasma concentration, Avg: 327 ng/mL and 289 nM
[3]; Day 5, Five Day Study, 4 hr
  Lung Homogenate concentration, Avg: 323 ng/mL and 286 nM
  Plasma concentration, Avg: 688 ng/mL and 608 nM
[3]; Day 5, Five Day Study, 24 hr
  Lung Homogenate concentration, Avg: 41 ng/mL and 36 nM
  Plasma concentration, Avg: 121 ng/mL and 107 nM
DPX2 cells; 6.25 μM, 24 h
  DPX2 Viability @ 6.25 μM: 113%
DPX2 cells; human
  DPX2 Viability @ 25 μM: 95%

## CO[C@H]1/C=C/O[C@@]2(C)Oc3c(C)c(O)c4c(=O)c(c5oc6cc(N7CCN(C(=O)c8cccc(-c9ccccn9)c8)CC7)cc(OCc7ccc(CN8CCOCC8)cc7)c6nc-5c4c3C2=O)NC(=O)/C(C)=C\C=C\[C@H](C)[C@H](O)[C@@H](C)[C@@H](O)[C@@H](C)[C@H](OC(C)=O)[C@@H]1C [Compound 17r, (7S,9E,11S,12R,13S,14R,15R,16R,17S,18S,19E,21Z)-2,15,17-trihydroxy-11-methoxy-3,7,12,14,16,18,22-heptamethyl-32-{[4-(morpholin-4-ylmethyl)phenyl]methoxy}-6,23,37-trioxo-30-(4-{[3-(pyridin-2-yl)phenyl]carbonyl}piperazin-1-yl)-8,27,38-trioxa-24,34-diazahexacyclo[23.11.1.1^4,7.0^5,36.0^26,35.0^28,33]octatriaconta-1,3,5(36)9,19,21,25,28,30,32,34-undecaen-13-yl acetate]
VERO cells (ATCC CRL-81)
  IC50: > 10 µM
MTB H37Rv ATCC 27294
  MIC90 MABA Rel to RMP: 0.46
MTB H37Rv ATCC 27294; MTB H37Rv ATCC 27294, microplate Alamar Blue assay, lowest concentration giving ≥90% reduction in fluorescence
  MIC90: 0.023 µM
[4]
  hPXR Fold Act. (lucif) @ 6.25 μM: 1 fold
  hPXR Fold Act. (lucif) @ 25 μM: 1 fold
DPX2 cells
  DPX2 Viability @ 6.25 μM: 105%
  DPX2 Viability @ 25 μM: 94%
WT MTB RNAP
  IC50: 9.8 nM

## CO[C@H]1/C=C/O[C@@]2(C)Oc3c(C)c(O)c4c(O)c(c(/C=N/N5CCN(C6CCCC6)CC5)c(O)c4c3C2=O)NC(=O)/C(C)=C\C=C\[C@H](C)[C@H](O)[C@@H](C)[C@@H](O)[C@@H](C)[C@H](OC(C)=O)[C@@H]1C [RFP, rifapentine, reference compound]
DPX2 cells; human, 24 h, 6.25 μM
  DPX2 Viability @ 6.25 μM: 104%
DPX2 cells; human, 24 h, 25 μM
  DPX2 Viability @ 25 μM: 105%
CYP 3A4; 6.25 μM
  hPXR Fold Act. (CYP 3A4) @ 6.25 μM: 20.3 fold
CYP 3A4; 25 μM
  hPXR Fold Act. (CYP 3A4) @ 25 μM: 20.5 fold

## CO[C@H]1/C=C/O[C@@]2(C)Oc3c(C)c(O)c4c(=O)c(c5oc6cc(N7CCN(CC(C)C)CC7)cc(O)c6nc-5c4c3C2=O)NC(=O)/C(C)=C\C=C\[C@H](C)[C@H](O)[C@@H](C)[C@@H](O)[C@@H](C)[C@H](OC(C)=O)[C@@H]1C [RLZ, rifalazil, reference compound]
[5]
  half-life: 60 to 100 h
hPXR
  hPXR activation: does not activate
MTB H37Rv ATCC 27294
  MIC90 MABA Rel to RMP: 0.04
MTB H37Rv ATCC 27294; [8]
  MIC90: 0.0011 µM (≈ 0.00104 µg/mL)
[4]
  activation of hPXR: no activation
DPX2 cells; 6.25 μM, 24 h
  DPX2 Viability @ 6.25 μM: 108%
DPX2 cells; at 100 pt
  loss of cell viability: ~2 fold
DPX2 cells; human
  DPX2 Viability @ 25 μM: 96%
MTB H37Rv
  more potent than RMP against MTB H37Rv in vitro: 29 fold

## CO[C@H]1/C=C/O[C@@]2(C)Oc3c(C)c(O)c4c(O)c(c(/C=N/N5CCN(C)CC5)c(O)c4c3C2=O)NC(=O)/C(C)=C\C=C\[C@H](C)[C@H](O)[C@@H](C)[C@@H](O)[C@@H](C)[C@H](OC(C)=O)[C@@H]1C [RMP, rifampin, reference compound]
VERO cells (ATCC CRL-81); Chlorocebus sabaeus, Vero
  IC50: > 100 µM
MTB H37Rv ATCC 27294; MABA MIC90 relative to rifampin (RMP = 1)
  MIC90 MABA Rel to RMP: 1
MTB H37Rv ATCC 27294; [8]
  MIC90: 0.027 µM (≈ 0.0222 µg/mL)
M. tuberculosis H37Rv; CFU Assay MBC99 relative to rifampin (RMP = 1)
  MBC99 Day 7 (CFU Assay) MBC99 Rel to RMP: 1
M. tuberculosis H37Rv; Mycobacterium tuberculosis, 168 h, Day 7, M. tuberculosis H37Rv, ≥99% reduction in colony forming units, read-out: MBC99 Day 7 (CFU Assay) MBC99
  MBC: 0.13 µM (≈ 0.107 µg/mL)
M. tuberculosis Erdman; 15 mg/kg QD, CMC-Tween vehicle
  CFU/Mouse: 857
M. tuberculosis Erdman; 15 mg/kg QD, PEG-water vehicle
  CFU/Mouse: 8,443
[6]
  adverse effects noted in the mice: no adverse effects
